Measurements taken from patent EP3046573B1, “AMYLIN ANALOGUES” (Zealand Pharma A/S, priority 2013, dated 2015).
Like-named read-outs stand apart in the source and are kept apart here. Numbered stars: 1 amine (or outer) side, 2 acyl side, 3 side chain; on linkers, the order of the positions; unused ones are H or OH. Bridge positions count the residues as written; N and C are the ends. Square brackets hold non-standard residues; d marks the D form. Peptide text beside a SMILES is read from it. * marks the point of attachment. C20 diacid = O=C(O)CCCCCCCCCCCCCCCCCCC(=O)*; γGlu = O=C(O)[C@H](CCC(=O)[*:2])N[*:1]; NMeI = CC[C@H](C)[C@H](NC)C(=O)O; Sar = CNCC(=O)O

Assays:
[1] = target: T1, human calcitonin receptor (hCTR2) (Homo sapiens, UniProt P30988); test: hCTR2 assay: induction of cAMP (AlphaScreen cAMP Assay kit) in COS7 cells expressing hCTR2; type: cell-based
T1 construct: expressed in transfected cells
T1 sequence (P30988 25-474): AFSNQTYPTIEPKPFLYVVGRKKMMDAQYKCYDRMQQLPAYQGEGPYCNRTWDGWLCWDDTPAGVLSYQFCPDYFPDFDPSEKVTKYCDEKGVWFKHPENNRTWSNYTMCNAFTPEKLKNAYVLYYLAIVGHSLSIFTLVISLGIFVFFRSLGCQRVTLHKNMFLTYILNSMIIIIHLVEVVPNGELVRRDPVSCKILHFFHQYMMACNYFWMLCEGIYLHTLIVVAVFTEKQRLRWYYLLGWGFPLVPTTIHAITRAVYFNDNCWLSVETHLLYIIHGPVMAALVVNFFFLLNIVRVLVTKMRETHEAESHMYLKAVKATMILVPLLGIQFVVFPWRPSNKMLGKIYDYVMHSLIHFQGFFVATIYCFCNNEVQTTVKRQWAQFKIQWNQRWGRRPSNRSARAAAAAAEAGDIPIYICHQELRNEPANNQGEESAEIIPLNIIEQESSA
In short: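 Functional agonism is measured as cAMP accumulation in a COS7 line stably transfected with hCTR2, lacking endogenous RAMPs. Peptides act for 15 min at 37° C with IBMX present, and curves are fitted with a 4-parameter logistic model.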

[2] = Solubility assessment (turbidity absorbance at 325 nm); type: physicochemical; conditions: stock 2 mg/ml diluted 1:1, ambient temperature (typically 25°C), n=1; for Solubility, Acetate buffer pH 4: 100 mM acetate buffer pH 4.0; for Solubility, Acetate buffer pH 5: 100 mM acetate buffer pH 5.0; for Solubility, Histidine buffer pH 6: 100 mM histidine buffer pH 6.0; for Solubility, Histidine buffer pH 7: 100 mM histidine buffer pH 7.0; for Solubility, Phosphate buffer pH 6: 100 mM phosphate buffer pH 6.0; for Solubility, Phosphate buffer pH 7: 100 mM phosphate buffer pH 7.0; for Solubility, Phosphate buffer pH 7.5: 100 mM phosphate buffer pH7.5
In short: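 Peptide stock (2 mg/ml, water pH 2.5) diluted 1:1 into 100 mM acetate (pH 4.0, 5.0), histidine (pH 6.0, 7.0) or phosphate (pH 6.0–7.5) buffer; absorbance at 325 nm read at about 25°C, n=1. A325 ≤ 0.02 taken as solubility ≥ 1 mg/ml.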

[3] = cAMP induction in COS7 cells expressing hCTR2, average of a minimum of 3 determinations, read-out: hCTR2 EC50

Row | SMILES | EC50 [1, 3] | Solubility, Acetate buffer pH 4 [2] | Solubility, Acetate buffer pH 5 [2] | Solubility, Histidine buffer pH 6 [2] | Solubility, Histidine buffer pH 7 [2] | Solubility, Phosphate buffer pH 6 [2] | Solubility, Phosphate buffer pH 7 [2] | Solubility, Phosphate buffer pH 7.5 [2] | EC50 [1]
1 | CC[C@H](C)[C@@H](C(=O)N[C@@H](CC(C)C)C(=O)N[C@H](CO)C(=O)N[C@@H](CO)C(=O)N[C@H](C(=O)N[C@@H](CC(N)=O)C(=O)N[C@H](C(=O)NCC(=O)N[C@@H](CO)C(=O)N[C@@H](CC(N)=O)C(=O)N[C@H](C(=O)N1CCC[C@H]1C(N)=O)[C@@H](C)O)C(C)C)[C@@H](C)O)N(C)C(=O)CN(C)C(=O)[C@H](Cc1ccccc1)NC(=O)[C@H](CC(N)=O)NC(=O)[C@H](CC(N)=O)NC(=O)[C@H](CO)NC(=O)[C@H](CO)NC(=O)[C@H](Cc1c[nH]cn1)NC(=O)[C@H](Cc1c[nH]cn1)NC(=O)[C@H](CC(C)C)NC(=O)[C@H](Cc1ccccc1)NC(=O)[C@H](CCC(=O)O)NC(=O)[C@H](C)NC(=O)[C@H](CC(C)C)NC(=O)[C@H](CCCNC(=N)N)NC(=O)[C@H](CCC(N)=O)NC(=O)[C@@H](NC(=O)[C@H](C)NC(=O)[C@@H]1CSSC[C@H](NC(=O)[C@H](CCCNC(=N)N)NC(=O)CC[C@H](NC(=O)CCCCCCCCCCCCCCCCCCC(=O)O)C(=O)O)C(=O)N[C@@H](CC(N)=O)C(=O)N[C@@H]([C@@H](C)O)C(=O)N[C@@H](C)C(=O)N[C@@H]([C@@H](C)O)C(=O)N1)[C@@H](C)O [Compound 24, [19CD]-isoGlu-RC()NTATC()ATQRLAEFLHHSSNNF-Gly(Me)-Ile(Me)-L-DSer-STNVGSNTP-NH2] ({C20 diacid-γGlu}-RCNTATCATQRLAEFLHHSSNNF[Sar][NMeI]L[dS]STNVGSNTP-NH2; disulfide 2-7) | 0.13 nM | SS (SS indicates solubility ≥ 1mg/ml) | SS (SS indicates solubility ≥ 1mg/ml) | SS (SS indicates solubility ≥ 1mg/ml) | SS (SS indicates solubility ≥ 1mg/ml) | SS (SS indicates solubility ≥ 1mg/ml) | SS (SS indicates solubility ≥ 1mg/ml) | SS (SS indicates solubility ≥ 1mg/ml) | 
2 | CC[C@H](C)[C@@H](C(=O)N[C@@H](CC(C)C)C(=O)N[C@@H](CO)C(=O)N[C@H](C(=O)N[C@@H](CC(N)=O)C(=O)N[C@H](C(=O)NCC(=O)N[C@@H](CO)C(=O)N[C@@H](CC(N)=O)C(=O)N[C@H](C(=O)N1CCC[C@H]1C(N)=O)[C@@H](C)O)C(C)C)[C@@H](C)O)N(C)C(=O)[C@H](C)NC(=O)CN(C)C(=O)[C@H](Cc1ccccc1)NC(=O)[C@H](CC(N)=O)NC(=O)[C@H](CC(N)=O)NC(=O)[C@H](CO)NC(=O)[C@H](CO)NC(=O)[C@H](Cc1c[nH]cn1)NC(=O)[C@H](Cc1c[nH]cn1)NC(=O)[C@H](CC(C)C)NC(=O)[C@H](Cc1ccccc1)NC(=O)[C@H](CCC(=O)O)NC(=O)[C@H](C)NC(=O)[C@H](CC(C)C)NC(=O)[C@H](CCCNC(=N)N)NC(=O)[C@H](CCC(N)=O)NC(=O)[C@@H](NC(=O)[C@H](C)NC(=O)[C@@H]1CSSC[C@H](NC(=O)[C@H](CCCNC(=N)N)NC(=O)CC[C@H](NC(=O)CCCCCCCCCCCCCCCCCCC(=O)O)C(=O)O)C(=O)N[C@@H](CC(N)=O)C(=O)N[C@@H]([C@@H](C)O)C(=O)N[C@@H](C)C(=O)N[C@@H]([C@@H](C)O)C(=O)N1)[C@@H](C)O [Compound 25, [19CD]-isoGlu-RC()NTATC()ATQRLAEFLHHSSNNF-Gly(Me)-A-Ile(Me)-LSTNVGSNTP-NH2] ({C20 diacid-γGlu}-RCNTATCATQRLAEFLHHSSNNF[Sar]A[NMeI]LSTNVGSNTP-NH2; disulfide 2-7) |  | SS (SS indicates solubility ≥ 1mg/ml) | SS (SS indicates solubility ≥ 1mg/ml) | SS (SS indicates solubility ≥ 1mg/ml) | SS (SS indicates solubility ≥ 1mg/ml) | SS (SS indicates solubility ≥ 1mg/ml) | SS (SS indicates solubility ≥ 1mg/ml) | SS (SS indicates solubility ≥ 1mg/ml) | 0.1 nM
3 | CC[C@H](C)[C@@H](C(=O)N[C@@H](CC(C)C)C(=O)N[C@@H](CO)C(=O)N[C@H](C(=O)N[C@@H](CC(N)=O)C(=O)N[C@H](C(=O)NCC(=O)N[C@@H](CO)C(=O)N[C@@H](CC(N)=O)C(=O)N[C@H](C(=O)N1CCC[C@H]1C(N)=O)[C@@H](C)O)C(C)C)[C@@H](C)O)N(C)C(=O)CN(C)C(=O)[C@H](Cc1ccccc1)NC(=O)[C@H](CC(N)=O)NC(=O)[C@H](CC(N)=O)NC(=O)[C@H](CO)NC(=O)[C@H](CO)NC(=O)[C@H](Cc1c[nH]cn1)NC(=O)[C@H](Cc1c[nH]cn1)NC(=O)[C@H](CC(C)C)NC(=O)[C@H](Cc1ccccc1)NC(=O)[C@H](CCC(=O)O)NC(=O)[C@H](C)NC(=O)[C@H](CC(C)C)NC(=O)[C@H](CCCNC(=N)N)NC(=O)[C@H](CCC(N)=O)NC(=O)[C@@H](NC(=O)[C@H](C)NC(=O)[C@@H]1CSSC[C@H](NC(=O)[C@H](CCCNC(=N)N)NC(=O)CC[C@H](NC(=O)CCCCCCCCCCCCCCCCCCC(=O)O)C(=O)O)C(=O)N[C@@H](CC(N)=O)C(=O)N[C@@H]([C@@H](C)O)C(=O)N[C@@H](C)C(=O)N[C@@H]([C@@H](C)O)C(=O)N1)[C@@H](C)O [Compound 26, [19CD]-isoGlu-RC()NTATC()ATQRLAEFLHHSSNNF-Gly(Me)-Ile(Me)-LSTNVGSNTP-NH2] ({C20 diacid-γGlu}-RCNTATCATQRLAEFLHHSSNNF[Sar][NMeI]LSTNVGSNTP-NH2; disulfide 2-7) | 0.11 nM | SS (SS indicates solubility ≥ 1mg/ml) | SS (SS indicates solubility ≥ 1mg/ml) | SS (SS indicates solubility ≥ 1mg/ml) | SS (SS indicates solubility ≥ 1mg/ml) | SS (SS indicates solubility ≥ 1mg/ml) | SS (SS indicates solubility ≥ 1mg/ml) | SS (SS indicates solubility ≥ 1mg/ml) | 
